From the supplement of paper PMC4862054

Tested on: BT-549
Details: 72 h
In short: (§1)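 The plates used were 384-well plates holding compound at 5 concentrations in 10-fold steps across a compound-specific 10,000-fold range, into which breast cancer cell lines were seeded in 20 µl suspension. Following 72 h incubation, CellTox Green fluorescence was read at 485/520 nm, and CellTiter-Glo luminescence was read after 10 min at room temperature. Normalisation on each plate used 0.1 % DMSO and a positive kill control. Dose-response curves gave the EC50, which was censored at the top concentration.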

SMILES	EC50, CellTiter-Glo
Cc1ccc(C(=O)Nc2ccc(CN3CCN(C)CC3)c(C(F)(F)F)c2)cc1C#Cc1cnc2cccnn12 [Ponatinib]	689 nM
CNCc1ccc(-c2[nH]c3cc(F)cc4c3c2CCNC4=O)cc1 [Rucaparib]	> 10000 nM
Cn1c(Nc2ccc(C(F)(F)F)cc2)nc2cc(Oc3ccnc(-c4ncc(C(F)(F)F)[nH]4)c3)ccc21 [RAF265]	377 nM
O=C(CCCCCCC(=O)Nc1ccc([C@H]2O[C@@H](CSc3nc(-c4ccccc4)c(-c4ccccc4)o3)C[C@@H](c3ccc(CO)cc3)O2)cc1)NO [Tubacin]	7350 nM
N#CCNC(=O)c1ccc(-c2ccnc(Nc3ccc(N4CCOCC4)cc3)n2)cc1 [Momelotinib]	2110 nM

The next lines start with the values.

EC50, CellTiter-Glo	SMILES
131 nM	NC(=O)Nc1cc(-c2cccc(F)c2)sc1C(=O)N[C@H]1CCCNC1 [AZD7762]
118 nM	CN[C@@H]1C[C@H]2O[C@@](C)([C@@H]1OC)n1c3ccccc3c3c4c(c5c6ccccc6n2c5c31)C(=O)N[C@H]4O [UCN-01]
3990 nM	COc1cc([C@@H]2c3cc4c(cc3[C@@H](O[C@@H]3O[C@@H]5CO[C@@H](C)O[C@H]5[C@H](O)[C@H]3O)[C@H]3COC(=O)[C@H]23)OCO4)cc(OC)c1O [Etoposide]
8.13 nM	CO[C@H]1/C=C\C=C(/C)C(=O)NC2=CC(=O)C(NCCN(C)C)=C(C[C@@H](C)C[C@H](OC)[C@H](O)[C@@H](C)/C=C(\C)[C@@H]1OC(N)=O)C2=O [Alvespimycin]

Tested on: CAL-120
Details: 72 h
In short: as §1

SMILES	EC50, CellTiter-Glo
NC(=O)Nc1cc(-c2cccc(F)c2)sc1C(=O)N[C@H]1CCCNC1 [AZD7762]	255 nM
Cc1ccc(C(=O)Nc2ccc(CN3CCN(C)CC3)c(C(F)(F)F)c2)cc1C#Cc1cnc2cccnn12 [Ponatinib]	162 nM
CN[C@@H]1C[C@H]2O[C@@](C)([C@@H]1OC)n1c3ccccc3c3c4c(c5c6ccccc6n2c5c31)C(=O)N[C@H]4O [UCN-01]	43.6 nM
CN(C)/N=N/c1[nH]cnc1C(N)=O [Dacarbazine]	> 10000 nM
C#Cc1cccc(Nc2ncnc3cc(OCCOC)c(OCCOC)cc23)c1 [Erlotinib]	9090 nM
Cn1c(Nc2ccc(C(F)(F)F)cc2)nc2cc(Oc3ccnc(-c4ncc(C(F)(F)F)[nH]4)c3)ccc21 [RAF265]	97.2 nM
COc1cc([C@@H]2c3cc4c(cc3[C@@H](O[C@@H]3O[C@@H]5CO[C@@H](C)O[C@H]5[C@H](O)[C@H]3O)[C@H]3COC(=O)[C@H]23)OCO4)cc(OC)c1O [Etoposide]	1550 nM
O=C(CCCCCCC(=O)Nc1ccc([C@H]2O[C@@H](CSc3nc(-c4ccccc4)c(-c4ccccc4)o3)C[C@@H](c3ccc(CO)cc3)O2)cc1)NO [Tubacin]	1610 nM
N#CCNC(=O)c1ccc(-c2ccnc(Nc3ccc(N4CCOCC4)cc3)n2)cc1 [Momelotinib]	1380 nM
CO[C@H]1/C=C\C=C(/C)C(=O)NC2=CC(=O)C(NCCN(C)C)=C(C[C@@H](C)C[C@H](OC)[C@H](O)[C@@H](C)/C=C(\C)[C@@H]1OC(N)=O)C2=O [Alvespimycin]	46.2 nM

Tested on: CAL-148
Details: 72 h
In short: as §1

SMILES	EC50, CellTiter-Glo
CN[C@@H]1C[C@H]2O[C@@](C)([C@@H]1OC)n1c3ccccc3c3c4c(c5c6ccccc6n2c5c31)C(=O)N[C@H]4O [UCN-01]	1490 nM
CNCc1ccc(-c2[nH]c3cc(F)cc4c3c2CCNC4=O)cc1 [Rucaparib]	501 nM
C#Cc1cccc(Nc2ncnc3cc(OCCOC)c(OCCOC)cc23)c1 [Erlotinib]	881 nM
COc1cc([C@@H]2c3cc4c(cc3[C@@H](O[C@@H]3O[C@@H]5CO[C@@H](C)O[C@H]5[C@H](O)[C@H]3O)[C@H]3COC(=O)[C@H]23)OCO4)cc(OC)c1O [Etoposide]	980 nM
O=C(CCCCCCC(=O)Nc1ccc([C@H]2O[C@@H](CSc3nc(-c4ccccc4)c(-c4ccccc4)o3)C[C@@H](c3ccc(CO)cc3)O2)cc1)NO [Tubacin]	2900 nM
CO[C@H]1/C=C\C=C(/C)C(=O)NC2=CC(=O)C(NCCN(C)C)=C(C[C@@H](C)C[C@H](OC)[C@H](O)[C@@H](C)/C=C(\C)[C@@H]1OC(N)=O)C2=O [Alvespimycin]	38.7 nM

Tested on: CAL-85-1
Details: 72 h
In short: as §1

SMILES	EC50, CellTiter-Glo
NC(=O)Nc1cc(-c2cccc(F)c2)sc1C(=O)N[C@H]1CCCNC1 [AZD7762]	112 nM
Cc1ccc(C(=O)Nc2ccc(CN3CCN(C)CC3)c(C(F)(F)F)c2)cc1C#Cc1cnc2cccnn12 [Ponatinib]	> 1000 nM
CN[C@@H]1C[C@H]2O[C@@](C)([C@@H]1OC)n1c3ccccc3c3c4c(c5c6ccccc6n2c5c31)C(=O)N[C@H]4O [UCN-01]	81.3 nM
C#Cc1cccc(Nc2ncnc3cc(OCCOC)c(OCCOC)cc23)c1 [Erlotinib]	761 nM
Cn1c(Nc2ccc(C(F)(F)F)cc2)nc2cc(Oc3ccnc(-c4ncc(C(F)(F)F)[nH]4)c3)ccc21 [RAF265]	827 nM
COc1cc([C@@H]2c3cc4c(cc3[C@@H](O[C@@H]3O[C@@H]5CO[C@@H](C)O[C@H]5[C@H](O)[C@H]3O)[C@H]3COC(=O)[C@H]23)OCO4)cc(OC)c1O [Etoposide]	9970 nM
O=C(CCCCCCC(=O)Nc1ccc([C@H]2O[C@@H](CSc3nc(-c4ccccc4)c(-c4ccccc4)o3)C[C@@H](c3ccc(CO)cc3)O2)cc1)NO [Tubacin]	2080 nM
N#CCNC(=O)c1ccc(-c2ccnc(Nc3ccc(N4CCOCC4)cc3)n2)cc1 [Momelotinib]	2160 nM
CO[C@H]1/C=C\C=C(/C)C(=O)NC2=CC(=O)C(NCCN(C)C)=C(C[C@@H](C)C[C@H](OC)[C@H](O)[C@@H](C)/C=C(\C)[C@@H]1OC(N)=O)C2=O [Alvespimycin]	41.8 nM
COc1cc2ncnc(Nc3ccc(F)c(Cl)c3)c2cc1NC(=O)/C=C/CN1CCCCC1 [Dacomitinib]	56.8 nM

Tested on: DU-4475
Details: 72 h
In short: as §1

SMILES	EC50, CellTiter-Glo
Cc1ccc(C(=O)Nc2ccc(CN3CCN(C)CC3)c(C(F)(F)F)c2)cc1C#Cc1cnc2cccnn12 [Ponatinib]	588 nM
CN[C@@H]1C[C@H]2O[C@@](C)([C@@H]1OC)n1c3ccccc3c3c4c(c5c6ccccc6n2c5c31)C(=O)N[C@H]4O [UCN-01]	184 nM
